Experimental data taken from US20140127158A1, “COMBINATION THERAPY FOR HEPATITIS C VIRUS INFECTION” (National Health Research Institute, priority 2012, published 2014).
Read-outs that look alike come from different tables or passages of the source.

Columns and labels:
[1] = tested on: genotype 2a HCV replicon with NS5A amino acid substitutions; experiment: Transient replicon assay, genotype 2a NS5A amino acid substitutions; format: cell-based, Hepatitis C virus; settings: for EC50 / EC90: Hepatitis C virus
[2] = tested on: HCV genotype 1b Con1 replicon cells; experiment: Isolation of resistant replicons, genotype 1b; format: cell-based, Hepatitis C virus
Procedure: Selection of resistant replicon cells was performed by growing HCV genotype 1b Con1 and 2a JFH1 replicon cells in medium containing 0.2 or 200 nM and 60 nM or 1 μM of DBPR110, respectively. Medium containing the compound was added to monolayers of HCV1b-neo replicon cells at ˜25% confluence in the presence of 0.2 to 0.4 mg/mL of G418. Replicon cells maintained in the presence of dimethyl sulfoxide (DMSO) were used as a control. After 40 days, total RNA was isolated from both the control replicon cells and homogeneous cell lines containing compound using the TRIzol reagent (Invitrogen, Carlsbad, Calif.) according to the manufacturer's protocol. The RNA was amplified by reverse transcription-PCR (RT-PCR).
To characterize the resistance profile of DBPR110, cell clones resistant to DBPR110 were obtained by culturing HCV genotype 1b replicon cells in the presence of G418 and increasing concentrations of DBPR110 ranging from 50- to 50,000-fold the EC50 value.

[3] = tested on: HCV genotype 1b replicon (Con1); experiment: Inhibitory assay for HCV replicons (luciferase), genotype 1b Con1; format: cell-based, Hepatitis C virus
Procedure: (§1) (2) Cell culture and HCV inhibitors. Huh-7.5 cells and their derivative HCV replicon cell lines were maintained in Dulbecco's modified Eagle's medium (DMEM, Gibco/BRL) that was supplemented with 100 U/mL penicillin-streptomycin (Gibco/BRL), 0.1 mM nonessential amino acid (NEAA, Gibco/BRL) and 10% fetal bovine serum (FBS) heat inactivated at 37° C. in 5% CO2. The HCV replicon cell lines were isolated from colonies as described in Lohman et al., Science 285:110-3 (1999). The culture medium for the replicon cells was additionally supplemented with 0.25 to 0.5 mg/mL of G418, unless specified otherwise. Compound DBPR110 and sofosbuvir were synthesized at the Institute of Biotechnology and Pharmaceutical Research at the National Health Research Institutes in Taiwan. Telaprevir (Lin et al., Antimicrob Agents Chemother, 50:1813-22 (2006)) was purchased from Acme Biosciences (Belmont, Calif.). The compounds were stored at −20° C. as 10 to 500 mM dimethyl sulfoxide (DMSO) stock solutions until the assay. IFN-α was purchased from Calbiochem (La Jolla, Calif.) and stored at −80° C.
(§2) (3) Inhibitory assay for HCV replicons. Cells were seeded at 1×10^4 (high-throughput screening assay) or 1×10^5 (regular assay) cells/well in 96- or 12-well plate, respectively, and incubated for 4 h. The medium was then aspirated and replaced with 0.1 (96-well plate) or 1 (12-well plate) mL of complete medium containing a single compound or combinations of compounds in serial concentration(s). The plates with compounds were incubated for 72 h and then assayed for luciferase expression (Promega). The EC50 of each compound was determined independently and used to determine the range of concentrations used for the combination experiments. All data are presented as the means±standard deviations (SD) from three independent experiments. The selectivity index (SI) was calculated as the ratio of the CC50 to the EC50.

HCV1b replicon = experiment: Serum shift assay; format: cell-based, Hepatitis C virus; settings: for EC90 / EC50: Hepatitis C virus; for EC50: read-out: E50
Procedure: (9) Serum shift assay. In the serum shift assay, the inhibitory activity of DBPR110 was determined using replicon 1b in the presence of 10, 20, 30, 40 or 50% fetal bovine serum, or 10 or 40% of extracellular normal human serum.

[4] = tested on: HCV genotype 2a replicon (JFH1); experiment: Inhibitory assay for HCV replicons (luciferase), genotype 2a JFH1; format: cell-based, Hepatitis C virus
Procedure: as §1, §2

Cytotoxicity assay (MTT) = format: cell-based; settings: human, read-out: CC50
Procedure: (4) Cytotoxicity assay. The sensitivity of the cell lines to inhibitors was examined using a 3-(4,5-Dimethylthiazol-2-yl)-2,5-diphenyltetrazolium bromide (MTT) assay. Briefly, Huh-7.5 cells were plated at a density of 1×10^5 cells per well in 12-well plates containing 1 mL of culture medium for 4 h. Serial dilutions of the compounds or DMSO (negative control) were added, and the plates were incubated for an additional 72 h. The MTT reagent was then added to each well, and the plates were incubated for 3 h at 37° C. in a humidified 5% CO2 atmosphere before reading at a wavelength of 563 nm using an ELISA plate reader. All data are presented as the means +/−SD from four independent experiments.

HCV genotype 1b replicon = experiment: Inhibitor combination study (combination index, CalcuSyn); settings: at the concentrations used in the combination experiments
[5] = Hepatitis C virus, JFH1 replicon cell line

## O=C(N[C@@H](C(=O)N1CCC[C@H]1c1ncc(-c2ccc(-c3ccc(-c4cnc([C@@H]5CCCN5C(=O)[C@H](NC(=O)C5CC5)c5ccccc5)s4)cc3)cc2)s1)c1ccccc1)C1CC1 [DBPR110]
[1]; genotype 2a NS5A P58L
  EC50: 53 nM
  EC90: 89.3 nM
  Fold resistance (EC50): 212 fold
  Fold resistance (EC90): 151 fold
[1]; genotype 2a NS5A Parental
  EC50: 0.25 ± 0.032 nM
  EC90: 0.592 ± 0.07 nM
  Fold resistance (EC50): 1 fold
  Fold resistance (EC90): 1 fold
[1]; genotype 2a NS5A T24A
  EC50: 16.2 nM
  EC90: 63.5 nM
  Fold resistance (EC50): 65 fold
  Fold resistance (EC90): 107 fold
[1]; genotype 2a NS5A Y93H
  EC50: 760 nM
  EC90: > 5000 nM
  Fold resistance (EC50): 3,041 fold
  Fold resistance (EC90): >8,446 fold
[1]; genotype 2a NS5A Y93N
  EC50: 51.8 nM
  EC90: 85.2 nM
  Fold resistance (EC50): 207 fold
  Fold resistance (EC90): 144 fold
[2]; DBPR110-resistant cells (DBPR110R), genotype 1b
  fold more resistant than parental cells: greater than 14,000 fold
[2]; Hepatitis C virus
  EC50: > 55 nM
[3]; Hepatitis C virus, HCV-1b replicon cell lines, single agent, combination study system, read-out: EC50
  EC50: 0.0033 ± 0.0008 nM
[3]; Hepatitis C virus, parental genotype 1b replicon cells, read-out: EC50
  EC50: 0.0039 nM
[3]; Hepatitis C virus, Genotype 1b, Con1 replicon cell line, read-out: Luciferase activity assay EC50
  EC50: 0.0039 nM
[3]; Hepatitis C virus, Genotype 1b, Con1 replicon cell line, read-out: Luciferase activity assay EC90
  EC90: 0.0082 ± 0.0018 nM
[3]; genotype 1b vs genotype 2a replicon cells
  susceptibility of genotype 1b greater than that of genotype 2a replicon cells: 74 fold
HCV1b replicon; 10% FBS
  Shift fold (EC50): 1.0 fold
  Shift fold (EC90): 1.0 fold
  EC90: 0.0093 ± 0.0034 nM
  EC50: 0.0043 ± 0.0008 nM
HCV1b replicon; 10% NHS (normal human serum)
  Shift fold (EC50): 1.0 fold
  Shift fold (EC90): 1.0 fold
  EC90: 0.0416 ± 0.0013 nM
  EC50: 0.0335 ± 0.0004 nM
HCV1b replicon; 20% FBS
  Shift fold (EC50): 1.9 fold
  Shift fold (EC90): 2.6 fold
  EC90: 0.0238 ± 0.011 nM
  EC50: 0.0081 ± 0.0016 nM
HCV1b replicon; 30% FBS
  Shift fold (EC50): 1.8 fold
  Shift fold (EC90): 2.3 fold
  EC90: 0.0216 ± 0.017 nM
  EC50: 0.0079 ± 0.0009 nM
HCV1b replicon; 40% FBS
  Shift fold (EC50): 3.1 fold
  Shift fold (EC90): 3.8 fold
  EC90: 0.0351 ± 0.0074 nM
  EC50: 0.0132 ± 0.0017 nM
HCV1b replicon; 40% NHS (normal human serum)
  Shift fold (EC50): 6.3 fold
  Shift fold (EC90): 14.1 fold
  EC90: 0.588 ± 0.0459 nM
  EC50: 0.211 ± 0.0063 nM
HCV1b replicon; 50% FBS
  Shift fold (EC50): 5.0 fold
  Shift fold (EC90): 4.5 fold
  EC90: 0.0419 ± 0.0072 nM
  EC50: 0.0215 ± 0.01 nM
[4]; CC50/EC50, JFH1
  Selective index: >173,130
[4]; [5]
  EC50: 0.229 nM
  EC90: 0.465 ± 0.0966 nM
Cytotoxicity assay (MTT); Genotype 2a, JFH1
  CC50 at 72 h: > 50000 nM
Cytotoxicity assay (MTT); HCV-1b replicon cell lines, single agent
  CC50 at 72 h: > 50 nM
Cytotoxicity assay (MTT); Huh-7.5 cells, Genotype 1b, Con1
  CC50 at 72 h: > 50000 nM
Cytotoxicity assay (MTT); Infectious HCV, Genotype 2a, JFH1
  CC50 at 72 h: > 50000 nM
HCV genotype 1b replicon
  cytotoxicity: No cytotoxicity was observed
